Values after ≈ are worked out from the molar mass of the structure shown. Where only a bound is given, the exact number is not on record here.

One data set can be described thus: Solubility at pH 6.8. Particulars: pH 6.8, aqueous buffer, thermodynamic from solid; read-out: solubility. The format is physicochemical. The method, boiled down:
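Following the procedure of Zhou et al. (2007), compound solubility was determined at pH 6.8.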

Data set [1] is described as follows: Cellular CaCo2 permeability assay from apical to basal (A-B). It counts as in vitro ADME. Particulars: human, Caco-2, read-out: Pe A-B (permeability). From the text: The permeability in 10^−6 cm/s of compounds of formula (I) have been confirmed for selected example using a cellular CaCo2 permeability assay from apical to basal (A-B): […]
In a further data set the target is T1, PI3K alpha (Homo sapiens, UniProt P42336).
T1 construct: p85(iSH2) fusion partner (see partner chain) (N); His tag (C); made in house; host or cells: baculovirus; Tn5 (Trichoplusia ni) or TiniPro insect cells
T1 sequence (P42336 with tags, fused parts or gaps limits assumed): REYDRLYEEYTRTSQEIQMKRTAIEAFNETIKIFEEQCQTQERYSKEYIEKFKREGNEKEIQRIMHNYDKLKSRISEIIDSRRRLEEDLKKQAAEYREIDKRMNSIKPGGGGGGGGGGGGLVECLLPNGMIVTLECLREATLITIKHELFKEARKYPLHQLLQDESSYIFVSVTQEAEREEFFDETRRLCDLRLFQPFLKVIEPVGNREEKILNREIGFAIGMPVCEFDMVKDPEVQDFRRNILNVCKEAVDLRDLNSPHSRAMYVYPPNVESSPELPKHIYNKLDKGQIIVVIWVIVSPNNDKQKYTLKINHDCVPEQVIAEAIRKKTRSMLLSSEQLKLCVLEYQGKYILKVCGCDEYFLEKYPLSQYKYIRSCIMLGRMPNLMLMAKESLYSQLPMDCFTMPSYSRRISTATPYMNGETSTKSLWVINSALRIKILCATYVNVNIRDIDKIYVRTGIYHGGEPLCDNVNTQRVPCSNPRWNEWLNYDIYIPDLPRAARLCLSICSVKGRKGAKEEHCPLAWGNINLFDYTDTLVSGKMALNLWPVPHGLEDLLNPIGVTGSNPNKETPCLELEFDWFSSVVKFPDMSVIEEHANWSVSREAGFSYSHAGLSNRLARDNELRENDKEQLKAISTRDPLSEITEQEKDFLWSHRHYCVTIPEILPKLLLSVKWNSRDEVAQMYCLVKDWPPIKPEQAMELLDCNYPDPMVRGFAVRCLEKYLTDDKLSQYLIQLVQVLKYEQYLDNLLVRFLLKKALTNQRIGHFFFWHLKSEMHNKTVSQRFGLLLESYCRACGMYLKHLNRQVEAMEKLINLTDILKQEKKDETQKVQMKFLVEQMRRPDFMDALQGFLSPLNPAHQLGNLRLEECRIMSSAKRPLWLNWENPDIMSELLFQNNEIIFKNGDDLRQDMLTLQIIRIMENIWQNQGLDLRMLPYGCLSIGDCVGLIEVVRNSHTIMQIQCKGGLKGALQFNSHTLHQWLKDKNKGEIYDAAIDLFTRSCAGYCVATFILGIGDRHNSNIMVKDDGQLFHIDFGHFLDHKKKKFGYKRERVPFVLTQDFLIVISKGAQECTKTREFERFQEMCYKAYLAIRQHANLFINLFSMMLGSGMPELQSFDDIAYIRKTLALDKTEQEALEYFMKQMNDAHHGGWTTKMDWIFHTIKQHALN
The data set can be described thus: PI3K alpha kinase assay (Kinase-Glo luminescence). The format is biochemical. The method, boiled down:
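Luminescent ATP-depletion assay (Kinase-Glo) with 10 nM PI3Kα and 10 μg/mL phosphatidylinositol as lipid substrate at 1 μM ATP. Incubation lasts 60 min at room temperature.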

The target of another data set is T2, PI3K gamma (Homo sapiens, UniProt P48736).
T2 construct: His tag (C); made in house; host or cells: baculovirus (pVL1393); Tn5 or TiniPro insect cells; construct from Roger Williams lab, MRC LMB
T2 sequence (P48736 144-1102 limits assumed): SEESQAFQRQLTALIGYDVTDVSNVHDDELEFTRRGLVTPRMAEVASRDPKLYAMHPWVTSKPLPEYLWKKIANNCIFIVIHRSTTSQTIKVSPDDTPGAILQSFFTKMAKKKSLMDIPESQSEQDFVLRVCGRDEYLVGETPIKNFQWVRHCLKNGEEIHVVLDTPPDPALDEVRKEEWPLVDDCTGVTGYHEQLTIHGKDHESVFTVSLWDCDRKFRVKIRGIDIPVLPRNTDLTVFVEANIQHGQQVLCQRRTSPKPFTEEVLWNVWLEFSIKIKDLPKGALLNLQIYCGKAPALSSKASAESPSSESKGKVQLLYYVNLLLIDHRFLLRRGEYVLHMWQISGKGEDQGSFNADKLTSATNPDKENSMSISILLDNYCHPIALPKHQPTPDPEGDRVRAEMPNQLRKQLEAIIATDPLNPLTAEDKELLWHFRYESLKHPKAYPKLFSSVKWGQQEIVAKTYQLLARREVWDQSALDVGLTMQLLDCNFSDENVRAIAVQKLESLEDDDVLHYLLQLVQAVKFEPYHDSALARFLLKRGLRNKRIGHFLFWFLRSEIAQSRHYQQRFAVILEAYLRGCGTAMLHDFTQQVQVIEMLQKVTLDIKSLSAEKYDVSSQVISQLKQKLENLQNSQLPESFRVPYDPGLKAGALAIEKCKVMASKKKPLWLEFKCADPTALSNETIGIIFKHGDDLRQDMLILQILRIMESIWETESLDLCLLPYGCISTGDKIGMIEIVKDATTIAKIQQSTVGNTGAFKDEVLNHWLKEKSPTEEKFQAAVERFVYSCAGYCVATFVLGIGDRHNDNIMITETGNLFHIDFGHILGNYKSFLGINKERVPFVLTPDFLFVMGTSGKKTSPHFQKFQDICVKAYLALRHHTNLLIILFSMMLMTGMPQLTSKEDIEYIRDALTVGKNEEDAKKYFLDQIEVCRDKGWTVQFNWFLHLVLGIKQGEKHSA
The data set can be described thus: PI3K gamma kinase assay (Kinase-Glo luminescence). The format is biochemical. The method, boiled down:
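PI3Kγ (150 nM) reaction run 120 min at room temperature with phosphatidylinositol substrate (10 μg/mL) and ATP (1 μM) in Tris pH 7.5 buffer containing MgCl2, NaCl, CHAPS and DTT. Remaining ATP detected by Kinase-Glo luminescence; 8 concentrations per compound, IC50 from 4-parameter curve fitting.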
(In general: Kinase-Glo reads ATP consumption through a luciferase reaction.)

`CCOc1ccc(-c2ccc3ncc4c(c3c2)n(-c2cn(C)nc2C)c(=O)n4C)cn1` [Example 3.1, 1-(1,3-Dimethyl-1H-pyrazol-4-yl)-8-(6-ethoxy-pyridin-3-yl)-3-methyl-1,3-dihydro-imidazo[4,5-c]quinolin-2-one]: the solubility in “Solubility at pH 6.8” was 15 µg/mL (≈ 36.2 µM). The Papp A→B in data set [1] was 28.6 ×10⁻⁶ cm/s. Further, the IC50 on PI3K alpha is 21 nM; at PI3K gamma, 246 nM.
The like results for `Cc1nn(C)cc1-n1c(=O)n(C)c2cnc3ccc(-c4cnc(N(C)C)nc4)cc3c21` [Example 6.2, 8-(2-Dimethylamino-pyrimidin-5-yl)-1-(1,3-dimethyl-1H-pyrazol-4-yl)-3-methyl-1,3-dihydro-imidazo[4,5-c]quinolin-2-one] were, in that order, 41 µg/mL (≈ 98.9 µM), 26.6 ×10⁻⁶ cm/s, 22 nM and 319 nM.
On to `COc1cncc(-c2ccc3ncc4c(c3c2)n(-c2cn(C)nc2C)c(=O)n4C)c1` [Example 12, 1-(1,3-Dimethyl-1H-pyrazol-4-yl)-8-(5-methoxy-pyridin-3-yl)-3-methyl-1,3-dihydro-imidazo[4,5-c]quinolin-2-one], for which, in the data set “Solubility at pH 6.8”, the solubility is 39 µg/mL (≈ 97.4 µM). Also, in data set [1], the Papp A→B was found to be 24 ×10⁻⁶ cm/s. Further, the IC50 turned out to be 8 nM on PI3K alpha and 92 nM at PI3K gamma.
The like results for `CCOc1cncc(-c2ccc3ncc4c(c3c2)n(-c2cn(C)nc2C)c(=O)n4C)c1` [Example 56.1, 1-(1,3-Dimethyl-1H-pyrazol-4-yl)-8-(5-ethoxy-pyridin-3-yl)-3-methyl-1,3-dihydro-imidazo[4,5-c]quinolin-2-one] were, in that order, 25 µg/mL (≈ 60.3 µM), 39.7 ×10⁻⁶ cm/s, 4 nM and 123 nM.
In the case of `Cc1nn(C(C)C)cc1-n1c(=O)n(C)c2cnc3ccc(-c4cncc(C(C)(C)O)c4)cc3c21` [Example 215.1, 8-[5-(1-Hydroxy-1-methyl-ethyl)-pyridin-3-yl]-1-(1-isopropyl-3-methyl-1H-pyrazol-4-yl)-3-methyl-1,3-dihydro-imidazo[4,5-c]quinolin-2-one], the solubility in “Solubility at pH 6.8” is greater than 457 µg/mL. The Papp A→B in data set [1] was found to be 5.9 ×10⁻⁶ cm/s. The IC50 on PI3K alpha stood at 12 nM.
The like results for `CCn1cc(-n2c(=O)n(C)c3cnc4ccc(-c5cnc(OC)nc5OC)cc4c32)c(C)n1` [Example 234.1, 8-(2,4-Dimethoxy-pyrimidin-5-yl)-1-(1-ethyl-3-methyl-1H-pyrazol-4-yl)-3-methyl-1,3-dihydro-imidazo[4,5-c]quinolin-2-one] were, in that order, 58 µg/mL (≈ 130 µM), 35.5 ×10⁻⁶ cm/s and 20 nM.
Turning to `COc1ccc(-c2ccc3ncc4[nH]c(=O)n(-c5cc(C)nn5C)c4c3n2)cc1OC` [Example 252, 8-(3,4-Dimethoxy-phenyl)-1-(2,5-dimethyl-2H-pyrazol-3-yl)-1,3-dihydro-1,3,5,9-tetraaza-cyclopenta[a]naphthalen-2-one], in the data set “Solubility at pH 6.8”, the solubility is 5 µg/mL (≈ 12 µM). In addition, in data set [1], the Papp A→B was 29.4 ×10⁻⁶ cm/s. Moreover, the IC50 at PI3K alpha is 3 nM; on PI3K gamma, 45 nM.

In general, solubility refers to the concentration that dissolves in the medium under given conditions. The term IC50 denotes the midpoint of a concentration-inhibition curve.

Source of the values: patent US20140005163A1 (NOVARTIS AG, priority 2010, published 2014).
